Experimental data as given in US20130150325A1, “3-(Fluorovinyl)pyrazoles and their use” (BAYER INTELLECTUAL PROPERTY GMBH, priority 2011, published 2013).

System: HCT 116 cells transfected with a luciferase reporter under the control of an HIF-responsive sequence
Test: HIF-luciferase assay
Type: cell-based
Settings: Homo sapiens; HCT 116 HIF-luciferase reporter cells, hypoxia chamber (1% O2), 24 h; in some cases means of up to four individual determinations
Experimental: HCT 116 cells were transfected in a stable manner with a plasmid which contained a luciferase reporter under the control of an HIF-responsive sequence. These cells were sown in microtitre plates [20 000 cells/cavity in RPMI 1640 medium with 10% foetal calf serum (FCS) and 100 μg/ml of hygromycin]. Incubation was carried out overnight under standard conditions (5% CO2, 21% O2, 37° C., moistened). The following morning the cells were incubated with various concentrations of the test substances (0-10 μmol/l) in a hypoxia chamber (1% O2). After 24 h, Bright Glo reagent (Promega, Wisconsin, USA) was added in accordance with the manufacturer's instructions, and after 5 min the luminescence was measured. Cells which were incubated under normoxia served as background controls.
The IC50 values from this assay for representative working examples are listed in the following table (in same cases as means of up to four individual determinations): […]

Compound | IC50 [nM]
Cc1cc(/C(F)=C/c2ccc(C(F)(F)F)cc2)nn1Cc1cccc(C(=O)N2CCN(C3CC3)CC2)c1 [Example 41, (4-Cyclopropylpiperazin-1-yl) {3-[(3-{(Z)-1-fluoro-2-[4-(trifluoromethyl)phenyl]vinyl}-5-methyl-1H-pyrazol-1-yl)methyl]phenyl}methanone] | 3
Cc1cc(/C(F)=C/c2ccc(OC(F)(F)F)cc2)nn1Cc1cccc(C(=O)N2CCN(C)CC2)c1 [Example 42, {3-[(3-{(Z)-1-Fluoro-2-[4-(trifluoromethoxy)phenyl]vinyl}-5-methyl-1H-pyrazol-1-yl)methyl]-phenyl}(4-methylpiperazin-1-yl)methanone] | 4
Cc1cc(/C(F)=C/c2ccc(OC(F)(F)F)cc2)nn1Cc1cccc(C(C)(C)O)c1 [Example 53, 2-{3-[(3-{(Z)-1-Fluoro-2-[4-(trifluoromethoxy)phenyl]vinyl}-5-methyl-1H-pyrazol-1-yl)methyl]-phenyl}propan-2-ol] | 4
Cc1cc(/C(F)=C/c2ccc(C(C)(C)C(F)(F)F)cc2)nn1Cc1cccc(C(C)(C)O)c1 [Example 54, 2-{3-[(3-{(Z)-1-Fluoro-2-[4-(1,1,1-trifluoro-2-methylpropan-2-yl)phenyl]vinyl}-5-methyl-1H-pyrazol-1-yl)methyl]phenyl}propan-2-ol] | 3
Cc1cc(/C(F)=C/c2ccc(OC(F)(F)F)cc2)nn1Cc1cccc(C2(CO)CC2)c1 [Example 55, (1-{3-[(3-{(Z)-1-Fluoro-2-[4-(trifluoromethoxy)phenyl]vinyl}-5-methyl-1H-pyrazol-1-yl)methyl]-phenyl}cyclopropyl)methanol] | 4
Cc1cc(/C(F)=C/c2ccc(C3(C(F)(F)F)CC3)cc2)nn1Cc1cccc(C2(CO)CC2)c1 [Example 59, {1-[3-({3-[(Z)-1-Fluoro-2-{4-[1-(trifluoromethyl)cyclopropyl]phenyl}vinyl]-5-methyl-1H-pyrazol-1-yl}methyl)phenyl]cyclopropyl}methanol] | 2
Cc1cc(/C(F)=C/c2ccc(OC(F)(F)F)cc2)nn1Cc1cccc(C(F)(F)CO)c1 [Example 61, 2,2-Difluoro-2-{3-[(3-{(Z)-1-fluoro-2-[4-(trifluoromethoxy)phenyl]vinyl}-5-methyl-1H-pyrazol-1-yl)methyl]phenyl}ethanol] | 4
Cc1cc(/C(F)=C/c2ccc(C(C)(C)C(F)(F)F)cc2)nn1Cc1cccc(C(F)(F)CO)c1 [Example 62, 2,2-Difluoro-2-{3-[(3-{(Z)-1-fluoro-2-[4-(1,1,1-trifluoro-2-methylpropan-2-yl)phenyl]vinyl}-5-methyl-1H-pyrazol-1-yl)methyl]phenyl}ethanol] | 2.5
Cc1cc(/C(F)=C/c2ccc(C3(C(F)(F)F)CC3)cc2)nn1Cc1cccc(C(F)(F)CO)c1 [Example 63, 2,2-Difluoro-2-[3-({3-[(Z)-1-fluoro-2-{4-[1-(trifluoromethyl)cyclopropyl]phenyl}vinyl]-5-methyl-1H-pyrazol-1-yl}methyl)phenyl]ethanol] | 3
Cc1cc(/C(F)=C/c2ccc(C(C)(C)C(F)(F)F)cc2)nn1Cc1cccc(CC(C)(C)O)c1 [Example 64, 1-{3-[(3-{(Z)-1-Fluoro-2-[4-(1,1,1-trifluoro-2-methylpropan-2-yl)phenyl]vinyl}-5-methyl-1H-pyrazol-1-yl)methyl]phenyl}-2-methylpropan-2-ol] | 2
CNc1ccc(Cn2nc(/C(F)=C/c3ccc(OC(F)(F)F)c(F)c3)cc2C)cn1 [Example 80, 5-[(3-{(Z)-1-Fluoro-2-[3-fluoro-4-(trifluoromethoxy)phenyl]vinyl}-5-methyl-1H-pyrazol-1-yl)-methyl]-N-methylpyridine-2-amine] | 2.8
CNc1ccc(Cn2nc(/C(F)=C/c3ccc(OC(F)(F)F)c(Cl)c3)cc2C)cn1 [Example 81, 5-[(3-{(Z)-2-[3-Chloro-4-(trifluoromethoxy)phenyl]-1-fluorovinyl}-5-methyl-1H-pyrazol-1-yl)-methyl]-N-methylpyridine-2-amine] | 3

Further lines, results first:

IC50 [nM] | Compound
2 | Cc1cc(/C(F)=C/c2ccc(C(C)(C)C(F)(F)F)cc2)nn1Cc1cccc(C(=O)N2CCN(C3CC3)CC2)c1 [Example 39, (4-Cyclopropylpiperazin-1-yl) {3-[(3-{(Z)-1-fluoro-2-[4-(1,1,1-trifluoro-2-methylpropan-2-yl)-phenyl]vinyl}-5-methyl-1H-pyrazol-1-yl)methyl]phenyl}methanone]
2 | Cc1cc(/C(F)=C/c2ccc(C3(C(F)(F)F)CC3)cc2)nn1Cc1cccc(C(=O)N2CCN(C3CC3)CC2)c1 [Example 40, (4-Cyclopropylpiperazin-1-yl)[3-({3-[(Z)-1-fluoro-2-{4-[1-(trifluoromethyl)cyclopropyl]phenyl}-vinyl]-5-methyl-1H-pyrazol-1-yl}methyl)phenyl]methanone]
2 | CC(=O)OC1(c2cccc(Cn3nc(/C(F)=C/c4ccc(OC(F)(F)F)cc4)cc3C)c2)CC1 [Example 43, 1-{3-[(3-{(Z)-1-Fluoro-2-[4-(trifluoromethoxy)phenyl]vinyl}-5-methyl-1H-pyrazol-1-yl)methyl]phenyl}cyclopropyl acetate]
0.5 | CC(=O)OC1(c2cccc(Cn3nc(/C(F)=C/c4ccc(C(C)(C)C(F)(F)F)cc4)cc3C)c2)CC1 [Example 44, 1-{3-[(3-{(Z)-1-Fluoro-2-[4-(1,1,1-trifluoro-2-methylpropan-2-yl)phenyl]vinyl}-5-methyl-1H-pyrazol-1-yl)methyl]phenyl}cyclopropyl acetate]
0.7 | CC(=O)OC1(c2cccc(Cn3nc(/C(F)=C/c4ccc(C5(C(F)(F)F)CC5)cc4)cc3C)c2)CC1 [Example 46, 1-[3-({3-[(Z)-1-Fluoro-2-{4-[1-(trifluoromethyl)cyclopropyl]phenyl}vinyl]-5-methyl-1H-pyrazol-1-yl}methyl)phenyl]cyclopropyl acetate]
2 | Cc1cc(/C(F)=C/c2ccc(OC(F)(F)F)cc2)nn1Cc1cccc(C2(O)CC2)c1 [Example 48, 1-{3-[(3-{(Z)-1-Fluoro-2-[4-(trifluoromethoxy)phenyl]vinyl}-5-methyl-1H-pyrazol-1-yl)methyl]-phenyl}cyclopropanol]
0.8 | Cc1cc(/C(F)=C/c2ccc(C(C)(C)C(F)(F)F)cc2)nn1Cc1cccc(C2(O)CC2)c1 [Example 49, 1-{3-[(3-{(Z)-1-Fluoro-2-[4-(1,1,1-trifluoro-2-methylpropan-2-yl)phenyl]vinyl}-5-methyl-1H-pyrazol-1-yl)methyl]phenyl}cyclopropanol]
1 | Cc1cc(/C(F)=C/c2ccc(C(C)(C)C(F)(F)F)c(F)c2)nn1Cc1cccc(C2(O)CC2)c1 [Example 50, 1-{3-[(3-{(Z)-1-Fluoro-2-[3-fluoro-4-(1,1,1-trifluoro-2-methylpropan-2-yl)phenyl]vinyl}-5-methyl-1H-pyrazol-1-yl)methyl]phenyl}cyclopropanol]
1 | Cc1cc(/C(F)=C/c2ccc(C3(C(F)(F)F)CC3)cc2)nn1Cc1cccc(C2(O)CC2)c1 [Example 51, 1-[3-({3-[(Z)-1-Fluoro-2-{4-[1-(trifluoromethyl)cyclopropyl]phenyl}vinyl]-5-methyl-1H-pyrazol-1-yl}methyl)phenyl]cyclopropanol]
1 | Cc1cc(/C(F)=C/c2ccc(C(C)(C)C)cc2)nn1Cc1cccc(C2(O)CC2)c1 [Example 52, 1-[3-({3-[(Z)-2-(4-tert-Butylphenyl)-1-fluorovinyl]-5-methyl-1H-pyrazol-1-yl}methyl)phenyl]-cyclopropanol]
2 | Cc1cc(/C(F)=C/c2ccc(SC(F)(F)F)cc2)nn1Cc1cccc(C2(CO)CC2)c1 [Example 56, {1-[3-({3-[(Z)-1-Fluoro-2-{4-[(trifluoromethyl)sulphanyl]phenyl}vinyl]-5-methyl-1H-pyrazol-1-yl}methyl)phenyl]cyclopropyl}methanol]
1 | Cc1cc(/C(F)=C/c2ccc(C(C)(C)C(F)(F)F)cc2)nn1Cc1cccc(C2(CO)CC2)c1 [Example 57, (1-{3-[(3-{(Z)-1-Fluoro-2-[4-(1,1,1-trifluoro-2-methylpropan-2-yl)phenyl]vinyl}-5-methyl-1H-pyrazol-1-yl)methyl]phenyl}cyclopropyl)methanol]
2 | Cc1cc(/C(F)=C/c2ccc(C(C)(C)C(F)(F)F)c(F)c2)nn1Cc1cccc(C2(CO)CC2)c1 [Example 58, (1-{3-[(3-{(Z)-1-Fluoro-2-[3-fluoro-4-(1,1,1-trifluoro-2-methylpropan-2-yl)phenyl]vinyl}-5-methyl-1H-pyrazol-1-yl)methyl]phenyl}cyclopropyl)methanol]
1 | CNc1ccc(Cn2nc(/C(F)=C/c3ccc(OC(F)(F)F)cc3)cc2C)cn1 [Example 79, 5-[(3-{(Z)-1-Fluoro-2-[4-(trifluoromethoxy)phenyl]vinyl}-5-methyl-1H-pyrazol-1-yl)methyl]-N-methylpyridine-2-amine]
1 | CNc1ccc(Cn2nc(/C(F)=C/c3ccc(SC(F)(F)F)cc3)cc2C)cn1 [Example 82, 5-({3-[(Z)-1-Fluoro-2-{4-[(trifluoromethyl)sulphanyl]phenyl}vinyl]-5-methyl-1H-pyrazol-1-yl}-methyl)-N-methylpyridine-2-amine]
0.4 | CNc1ccc(Cn2nc(/C(F)=C/c3ccc(C(C)(C)C(F)(F)F)cc3)cc2C)cn1 [Example 83, 5-[(3-{(Z)-1-Fluoro-2-[4-(1,1,1-trifluoro-2-methylpropan-2-yl)phenyl]vinyl}-5-methyl-1H-pyrazol-1-yl)methyl]-N-methylpyridine-2-amine]
